Assay results as given in patent US8741559B2, “Cellular assay employing detectable protein” (DiscoveRx Corporation, priority 2009, dated 2014).

Experiments:
FRAP1 = assay: Phospho-Akt1 (Ser473) cellular assay; format: cell-based, human; conditions: Hek 293 cells; for dose response in the phospho-Akt1 (Ser473) assay: FIG. 5; for IC50 through the FRAP1 pathway compared with the PDPK1 pathway: anti-phospho Akt1 (Ser473) versus anti-phospho Akt (Thr308) assays
Description: (§1) In this cellular assay, compounds were tested for their ability to inhibit Braf, by measuring the phosphorylation of Mek1, a direct kinase substrate of Braf. A375 cells expressing the constitutively active Braf V600E mutation were plated at a density of 3e5 cells/mL in a 10 cm plate and transfected with expression plasmid encoding detectable protein (16 μg) in 1 mL OPTI-MEM buffer (GIBCO/Invitrogen) with 40 μL Lipofectamine 2000 (Invitrogen) and incubated at 37° C. for 18-22 h. On the following day, media was removed and cells washed with PBS, trypsinized then quenched with M3 media (DMEM containing 10% FBS). Cells were counted and resuspended in M3 complete media to a density of […] and then plated at 50,000 cells/well/100 μL into a 96-well plate and incubated at 37° C. for 3h. Media was then removed and starvation media (0.5% FBS/DMEM) was added to the wells and allowed to incubate overnight. On the following day, the cells were incubated with compound in M3 starvation media and incubated at 37° C. for 2 hours.
The cells were centrifuged at 3000 rpm for 20 minutes. […] Lysate dilution was carried out in two steps. The 96-well plate containing 10 μL extract aliquot was thawed at room temp, and 40 microliters of a solution of 0.1% BSA /1× PBS 0.05% Tween with 2 nM nucleic acid tag serving as the NF-κB probe was added, and mixed by orbital shaking at 450 rpm at room temp for 10 min. Then 270 microliters of a solution of 20 microgram per mL sheared salmon sperm DNA in 0.1% BSA/1× PBS 0.05was added, and mixed gently by pipetting up and down.
On the following day, beads were pelleted then washed/blocked and resuspended in 1-2×2% BSA/PBST and plated out onto a 96-well polypropylene plate at half the original stock concentration. The phospho-MEK1 binding assay was carried out on a separate plate containing 25 μL of beads and 100 μL 2% BSA/PBST which was shaken until the addition of cell lysate. For the binding assay, beads were first pelleted and the buffer aspirated, and then 100 μL of diluted lysate was added to each well and the plate was shaken at room temperature for one hour. After the binding step, the beads were pelleted for 4 minutes, the buffer aspirated and 150 μL of PBST was added. The plate was briefly shaken and then pelleted over a magnet and then washed two to four times with wash buffer (1× PBS/0.05% Tween 20) to remove unbound proteins. After the final wash, the beads were resuspended in 150 μL of IgG elution buffer (Pierce Cat No. 21004) supplemented with Tween 20 to 0.05% and incubated at room temperature with shaking for 60 minutes. After pelleting the beads, 50 μL of the eluted mixture was removed, and added to 30 μL of 200 mM Tris base, mixed well, and then transferred to the DNA detection assay. For qPCR, 2.5 μL was transferred to 7.5 μL of mastermix with appropriate primers and probes (Applied Biosystems).
As shown in the diagram in FIG. 2, the PIK3CA kinase mediates signaling through two separate pathways, e.g., by direct activation of the kinase substrates FRAP1 (the kinase domain of mTOR), or other less-studied kinases known as “PDK2” in the literature and PDPK1, both of which in turn phosphorylate Akt. […] Therefore, using this cellular assay, compounds were interrogated for their inhibitory mechanism not only against PIK3CA but also against FRAP1 or PDPK1, by measuring site-specific phosphorylation of Akt. […] A binding assay using anti-total Akt1 antibody was also run in parallel to normalize the amount of measured phospho-Akt1 across wells.

PDPK1 = assay: Phospho-Akt1 (Thr308) cellular assay; format: cell-based, human; conditions: Hek 293 cells, FIG. 6
Description: as §1, with “On the following day, the cells were incubated with compound in M3 starvation media and incubated at 37° C. for 2 hours.” left out
As shown in the diagram in FIG. 2, the PIK3CA kinase mediates signaling through two separate pathways, e.g., by direct activation of the kinase substrates FRAP1 (the kinase domain of mTOR), or other less-studied kinases known as “PDK2” in the literature and PDPK1, both of which in turn phosphorylate Akt. […] A binding assay using anti-total Akt1 antibody was also run in parallel to normalize the amount of measured phospho-Akt1 across wells.

SMILES	dose response in the phospho-Akt1 (Ser473) assay (FRAP1)	IC50 through the FRAP1 pathway compared with the PDPK1 pathway (FRAP1)	inhibition of Thr308 phosphorylation of Akt (PDPK1)
O=C(NCCCNc1nc(Nc2cccc(NC(=O)N3CCCC3)c2)ncc1I)c1cccs1 [BX-795]	insensitive	selectively inhibiting PDPK1 over FRAP1	
Nc1nc(N)c2nc(-c3cccc(O)c3)c(-c3cccc(O)c3)nc2n1 [TG-100-115]	insensitive		
Oc1cccc(-c2nc(N3CCOCC3)c3oc4ncccc4c3n2)c1 [PI103]		nearly equipotent IC50	
C[C@@H]1C[C@H]2O[C@@H]2/C=C\C=C\C(=O)Cc2c(Cl)c(O)cc(O)c2C(=O)O1 [radicicol]	partially sensitive		could only partially inhibit Thr308 phosphorylation
FC(F)c1nc2ccccc2n1-c1nc(N2CCOCC2)nc(N2CCOCC2)n1 [ZSTK-474]		nearly equipotent IC50s	
